Experimental data: patent US10758534B2 (Vertex Pharmaceuticals Incorporated, priority 2014, dated 2020)

Molecular target: T1, F508del (Homo sapiens, UniProt P13569, DEL508-508)
T1 construct: expressed in transfected cells
Assay: Protocol 1: membrane potential optical assay (FLIPR III, voltage sensing dye), identification of potentiator compounds
Type: cell-based
Conditions: Table 3, compounds of Table 1
In short: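 Mouse NIH 3T3 fibroblasts stably expressing F508del, temperature-corrected at 27 °C for 24 h, pretreated with compound, then loaded with voltage-sensing redistribution dye. Forskolin was added in a single step with a chloride gradient (chloride-free gluconate bath; Bath Solution #1 HEPES pH 7.4). Membrane-potential fluorescence read on FLIPR III.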

T1 sequence (P13569 with tags, fused parts or gaps DEL508-508): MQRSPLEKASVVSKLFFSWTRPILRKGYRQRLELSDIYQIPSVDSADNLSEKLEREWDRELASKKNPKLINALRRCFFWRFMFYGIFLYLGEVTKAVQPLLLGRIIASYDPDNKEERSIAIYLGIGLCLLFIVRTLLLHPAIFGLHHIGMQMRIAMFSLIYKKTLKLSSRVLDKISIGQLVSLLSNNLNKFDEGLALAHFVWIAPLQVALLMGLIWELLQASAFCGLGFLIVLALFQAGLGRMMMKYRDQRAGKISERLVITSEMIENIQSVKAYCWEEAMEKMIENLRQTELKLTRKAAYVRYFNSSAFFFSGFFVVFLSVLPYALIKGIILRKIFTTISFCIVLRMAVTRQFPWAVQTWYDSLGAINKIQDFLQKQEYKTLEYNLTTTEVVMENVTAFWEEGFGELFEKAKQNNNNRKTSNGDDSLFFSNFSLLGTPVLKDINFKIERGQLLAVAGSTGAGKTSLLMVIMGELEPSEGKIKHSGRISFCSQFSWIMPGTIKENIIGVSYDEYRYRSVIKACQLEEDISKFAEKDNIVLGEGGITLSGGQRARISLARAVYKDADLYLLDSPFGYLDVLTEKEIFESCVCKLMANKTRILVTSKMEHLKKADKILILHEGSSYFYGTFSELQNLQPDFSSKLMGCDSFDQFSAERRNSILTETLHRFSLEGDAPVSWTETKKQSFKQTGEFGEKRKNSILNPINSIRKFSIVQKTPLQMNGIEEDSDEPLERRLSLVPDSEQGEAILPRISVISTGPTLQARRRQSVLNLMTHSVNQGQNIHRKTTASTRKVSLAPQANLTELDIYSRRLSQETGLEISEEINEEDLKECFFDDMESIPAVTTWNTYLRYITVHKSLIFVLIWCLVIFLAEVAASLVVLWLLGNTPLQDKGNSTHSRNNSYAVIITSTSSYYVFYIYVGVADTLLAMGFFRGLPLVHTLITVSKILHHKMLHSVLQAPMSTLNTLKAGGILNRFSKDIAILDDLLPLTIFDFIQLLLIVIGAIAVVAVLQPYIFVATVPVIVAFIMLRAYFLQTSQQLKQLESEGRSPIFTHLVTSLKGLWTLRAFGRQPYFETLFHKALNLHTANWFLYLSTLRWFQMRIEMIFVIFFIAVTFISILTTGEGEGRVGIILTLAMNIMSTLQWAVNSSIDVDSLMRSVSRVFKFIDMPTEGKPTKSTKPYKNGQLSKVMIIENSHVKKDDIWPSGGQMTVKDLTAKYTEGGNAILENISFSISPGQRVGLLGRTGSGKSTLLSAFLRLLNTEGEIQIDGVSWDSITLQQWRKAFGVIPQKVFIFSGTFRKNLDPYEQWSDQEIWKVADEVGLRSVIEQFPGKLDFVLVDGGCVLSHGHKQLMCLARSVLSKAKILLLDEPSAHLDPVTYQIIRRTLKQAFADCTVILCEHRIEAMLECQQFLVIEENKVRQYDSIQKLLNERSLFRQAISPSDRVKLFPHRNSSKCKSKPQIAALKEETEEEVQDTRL

CC(C)COc1cccc(-c2ccc(C(=O)NS(=O)(=O)c3cccc(N)n3)c(N3C[C@@H](C)CC3(C)C)n2)c1 [Compound 1969, N-[(6-amino-2-pyridyl)sulfonyl]-6-(3-isobutoxyphenyl)-2-[(4S)-2,2,4-trimethylpyrrolidin-1-yl]pyridine-3-carboxamide]
EC30: +++ (“+++” means <3 uM)

CCC(C)Oc1ccn(-c2ccc(C(=O)NS(=O)(=O)c3cccnc3N)c(N3C[C@@H](C)CC3(C)C)n2)n1 (stereo partly drawn) [Compound 1970, N-[(2-amino-3-pyridyl)sulfonyl]-6-(3-sec-butoxypyrazol-1-yl)-2-[(4S)-2,2,4-trimethylpyrrolidin-1-yl]pyridine-3-carboxamide]
EC30: +++ (“+++” means <3 uM)

CC1CN(c2ncccc2C(=O)NS(=O)(=O)c2cccc(NC3CCC(C(C)(C)C)CC3)n2)C(C)(C)C1 (centres unmarked) [Compound 1971, N—[[6-[(4-tert-butylcyclohexyl)amino]-2-pyridyl]sulfonyl]-2-(2,2,4-trimethylpyrrolidin-1-yl)pyridine-3-carboxamide]
EC30: +++ (“+++” means <3 uM)

COc1cccc(COc2cccc(S(=O)(=O)NC(=O)c3cccnc3N3CC(C)CC3(C)C)n2)c1 (centres unmarked) [Compound 1972, N—[[6-[(3-methoxyphenyl)methoxy]-2-pyridyl]sulfonyl]-2-(2,2,4-trimethylpyrrolidin-1-yl)pyridine-3-carboxamide]
EC30: +++ (“+++” means <3 uM)

Cc1cc(-c2ccc(C(=O)NS(=O)(=O)c3cccc(N)n3)c(N3C[C@@H](C)CC3(C)C)n2)cnc1OCCOC(C)C [Compound 1973, N-[(6-amino-2-pyridyl)sulfonyl]-6-[6-(2-isopropoxyethoxy)-5-methyl-3-pyridyl]-2-[(4S)-2,2,4-trimethylpyrrolidin-1-yl]pyridine-3-carboxamide]
EC30: +++ (“+++” means <3 uM)

CC(C)(C)c1ccc(C(=O)NS(=O)(=O)c2cccc(N)n2)c(N2CCC(C3CC3)C2(C)C)n1 (centres unmarked) [Compound 1974]
EC30: +++ (“+++” means <3 uM)

C[C@@H]1CN(c2nc(-n3ccc(OCC(C)(C)C)n3)ccc2C(=O)NS(=O)(=O)c2cccnc2N)C(C)(C)C1 [Compound 1975, N-[(2-amino-3-pyridyl)sulfonyl]-6-[3-(2,2-dimethylpropoxy)pyrazol-1-yl]-2-[(4S)-2,2,4-trimethylpyrrolidin-1-yl]pyridine-3-carboxamide]
EC30: +++ (“+++” means <3 uM)

CC(=O)Nc1ncccc1S(=O)(=O)NC(=O)c1ccc(-c2ccc(OC(C)C)nc2)nc1N1C[C@@H](C)CC1(C)C [Compound 1976, N-[(2-acetamido-3-pyridyl)sulfonyl]-6-(6-isopropoxy-3-pyridyl)-2-[(4S)-2,2,4-trimethylpyrrolidin-1-yl]pyridine-3-carboxamide]
EC30: +++ (“+++” means <3 uM)

CC1CN(c2ncccc2C(=O)NS(=O)(=O)c2cccc(Nc3ccc(OC(F)(F)F)cc3)n2)C(C)(C)C1 (centres unmarked) [Compound 1977, N—[[6-[4-(trifluoromethoxy)anilino]-2-pyridyl]sulfonyl]-2-(2,2,4-trimethylpyrrolidin-1-yl)pyridine-3-carboxamide]
EC30: +++ (“+++” means <3 uM)

CC1CN(c2ncccc2C(=O)NS(=O)(=O)c2cccc(N(C)CCc3ccccc3)n2)C(C)(C)C1 (centres unmarked) [Compound 1978, N—[[6-[methyl(phenethyl)amino]-2-pyridyl]sulfonyl]-2-(2,2,4-trimethylpyrrolidin-1-yl)pyridine-3-carboxamide]
EC30: +++ (“+++” means <3 uM)

CC(C)COc1ccccc1-c1cnc(N2CC(C)CC2(C)C)c(C(=O)NS(=O)(=O)c2cccc(N)n2)c1 (centres unmarked) [Compound 1979, N-[(6-amino-2-pyridyl)sulfonyl]-5-(2-isobutoxyphenyl)-2-(2,2,4-trimethylpyrrolidin-1-yl)pyridine-3-carboxamide]
EC30: +++ (“+++” means <3 uM)

COc1ncccc1-c1ccc(C(=O)NS(=O)(=O)c2cccnc2N)c(N2C[C@@H](C)CC2(C)C)n1 [Compound 1980, N-[(2-amino-3-pyridyl)sulfonyl]-6-(2-methoxy-3-pyridyl)-2-[(4S)-2,2,4-trimethylpyrrolidin-1-yl]pyridine-3-carboxamide]
EC30: +++ (“+++” means <3 uM)

C[C@@H]1CN(c2nc(-c3cc(F)c(F)cc3F)ccc2C(=O)NS(=O)(=O)c2ccc[nH]c2=O)C(C)(C)C1 [Compound 1981, N-[(2-oxo-1H-pyridin-3-yl)sulfonyl]-6-(2,4,5-trifluorophenyl)-2-[(4S)-2,2,4-trimethylpyrrolidin-1-yl]pyridine-3-carboxamide]
EC30: +++ (“+++” means <3 uM)

C[C@@H]1CN(c2nc(-c3ccc4[nH]ccc4c3)ccc2C(=O)NS(=O)(=O)c2ccc[nH]c2=O)C(C)(C)C1 [Compound 1982, 6-(1H-indol-5-yl)-N-[(2-oxo-1H-pyridin-3-yl)sulfonyl]-2-[(4S)-2,2,4-trimethylpyrrolidin-1-yl]pyridine-3-carboxamide]
EC30: ++ (“++” means between 3 uM and 10 uM)

CC1CN(c2ncccc2C(=O)NS(=O)(=O)c2cccc(NCc3ccccc3Cl)n2)C(C)(C)C1 (centres unmarked) [Compound 1983, N—[[6-[(2-chlorophenyl)methylamino]-2-pyridyl]sulfonyl]-2-(2,2,4-trimethylpyrrolidin-1-yl)pyridine-3-carboxamide]
EC30: +++ (“+++” means <3 uM)

C[C@@H]1CN(c2nc(C3=CCCN(C(=O)c4cccc(Cl)c4)C3)ccc2C(=O)NS(=O)(=O)c2cccc(N)n2)C(C)(C)C1 [Compound 1984, N-[(6-amino-2-pyridyl)sulfonyl]-6-[1-(3-chlorobenzoyl)-3,6-dihydro-2H-pyridin-5-yl]-2-[(4S)-2,2,4-trimethylpyrrolidin-1-yl]pyridine-3-carboxamide]
EC30: ++ (“++” means between 3 uM and 10 uM)

CCCCCN1CCN(c2cccc(S(=O)(=O)NC(=O)c3cccnc3N3CC(C)CC3(C)C)n2)CC1 (centres unmarked) [Compound 1985, N—[[6-(4-pentylpiperazin-1-yl)-2-pyridyl]sulfonyl]-2-(2,2,4-trimethylpyrrolidin-1-yl)pyridine-3-carboxamide]
EC30: ++ (“++” means between 3 uM and 10 uM)

CC1CN(c2ncccc2C(=O)NS(=O)(=O)c2cccc(N3Cc4cccc5cccc(c45)C3)n2)C(C)(C)C1 (centres unmarked) [Compound 1986, N—[[6-(1,3-dihydrobenzo[de]isoquinolin-2-yl)-2-pyridyl]sulfonyl]-2-(2,2,4-trimethylpyrrolidin-1-yl)pyridine-3-carboxamide]
EC30: +++ (“+++” means <3 uM)

CC1CN(c2ncccc2C(=O)NS(=O)(=O)c2cccc(N3CCC(c4ccccc4)CC3)n2)C(C)(C)C1 (centres unmarked) [Compound 1987, N—[[6-(4-phenyl-1-piperidyl)-2-pyridyl]sulfonyl]-2-(2,2,4-trimethylpyrrolidin-1-yl)pyridine-3-carboxamide]
EC30: +++ (“+++” means <3 uM)

CC1CCCC(Oc2cccc(S(=O)(=O)NC(=O)c3cccnc3N3CC(C)CC3(C)C)n2)C1 (centres unmarked) [Compound 1988, N—[[6-(3-methylcyclohexoxy)-2-pyridyl]sulfonyl]-2-(2,2,4-trimethylpyrrolidin-1-yl)pyridine-3-carboxamide]
EC30: +++ (“+++” means <3 uM)

CC1CN(c2ncccc2C(=O)NS(=O)(=O)c2cccc(Oc3ccc4ccccc4n3)n2)C(C)(C)C1 (centres unmarked) [Compound 1989, N—[[6-(2-quinolyloxy)-2-pyridyl]sulfonyl]-2-(2,2,4-trimethylpyrrolidin-1-yl)pyridine-3-carboxamide]
EC30: +++ (“+++” means <3 uM)

Cc1ccc(C)c(-c2ccc(C(=O)NS(=O)(=O)c3ccc[nH]c3=O)c(N3C[C@@H](C)CC3(C)C)n2)c1 [Compound 1990, 6-(2,5-dimethylphenyl)-N-[(2-oxo-1H-pyridin-3-yl)sulfonyl]-2-[(4S)-2,2,4-trimethylpyrrolidin-1-yl]pyridine-3-carboxamide]
EC30: +++ (“+++” means <3 uM)

CC(C)c1cccc(-c2ccc(C(=O)NS(=O)(=O)c3cccnc3N)c(N3C[C@@H](C)CC3(C)C)n2)c1 [Compound 1991, N-[(2-amino-3-pyridyl)sulfonyl]-6-(3-isopropylphenyl)-2-[(4S)-2,2,4-trimethylpyrrolidin-1-yl]pyridine-3-carboxamide]
EC30: +++ (“+++” means <3 uM)

CC1CN(c2ncccc2C(=O)NS(=O)(=O)c2cccc(OCc3ccsc3)n2)C(C)(C)C1 (centres unmarked) [Compound 1992, N—[[6-(3-thienylmethoxy)-2-pyridyl]sulfonyl]-2-(2,2,4-trimethylpyrrolidin-1-yl)pyridine-3-carboxamide]
EC30: +++ (“+++” means <3 uM)

COc1cccc(OC)c1-c1ccc(C(=O)NS(=O)(=O)c2cccnc2N)c(N2C[C@@H](C)CC2(C)C)n1 [Compound 1994, N-[(2-amino-3-pyridyl)sulfonyl]-6-(2,6-dimethoxyphenyl)-2-[(4S)-2,2,4-trimethylpyrrolidin-1-yl]pyridine-3-carboxamide]
EC30: +++ (“+++” means <3 uM)

CC(C)COc1cc(F)cc(-c2ccc(C(=O)NS(=O)(=O)c3cccc(N)n3)c(N3CC(C)CCC3(C)C)n2)c1 (centres unmarked) [Compound 1995, N-[(6-amino-2-pyridyl)sulfonyl]-6-(3-fluoro-5-isobutoxy-phenyl)-2-(2,2,5-trimethyl-1-piperidyl)pyridine-3-carboxamide]
EC30: +++ (“+++” means <3 uM)
